The source of these data is patent US7438926B2, “Methods for inhibiting decrease in transdermal drug flux by inhibition of pathway closure” (Alza Corporation, priority 2000, dated 2008).

For the assay, the system named is pathway closure. The assay is described as follows: Inhibition of pathway closure by chemicals, methylene blue dye score after microprotrusion array pretreatment. It counts as in vivo, hairless guinea pigs. Here is the method: Inhibition of pathway collapse by chemical agents was studied following pretreatment of the skin with a microprotrusion array and application of a formulation containing the agent for 24 h. Quantitation was performed by evaluation of dye impregnation of the pathways.
Application of the microprotrusion array was performed with an impact applicator. […] Following application, the stretching tension was released. […] The guinea pig received a second system containing a different formulation on the opposite site. Twenty four hours after application, three systems from each group were removed and residual formulation washed from the skin. The skin was stained with a 1% methylene blue solution. Excess dye was thoroughly removed with 70% isopropyl alcohol pads and a picture of the site was taken. Pictures were scored on a 0 to 5 scale, 5 being the dye uptake obtained immediately following microprotrusion array application and 0 being the dye uptake obtained after 24 h contact with a control formulation. A score of 0.5 or greater was considered significant. Various osmotic agents, anticoagulants, antiinflammatory agents, gelling agents as well as gels of different pH and various additives were tested (Table II).

Where [1] appears, read: additive concentration 50%, 24 h, scale 0 to 5, 0.5 or greater significant.
Setting [2] is: 24 h, methylene blue evaluation, Table II.
Where [3] appears, read: additive concentration 2%, 24 h, scale 0 to 5, 0.5 or greater significant.
The mark [4] stands for this setting: additive concentration 5%, 24 h, scale 0 to 5, 0.5 or greater significant.
Setting [5] is: additive concentration 11%, 24 h, scale 0 to 5, 0.5 or greater significant.
Setting [6] is: additive concentration 23%, 24 h, scale 0 to 5, 0.5 or greater significant.
Where [7] appears, read: additive concentration 30%, 24 h, scale 0 to 5, 0.5 or greater significant.
Setting [8] is: additive concentration 0.05%, 24 h, scale 0 to 5, 0.5 or greater significant.
Where [9] appears, read: additive concentration 10%, 24 h, scale 0 to 5, 0.5 or greater significant.
The mark [10] stands for this setting: additive concentration 13%, 24 h, scale 0 to 5, 0.5 or greater significant.
Where [11] appears, read: additive concentration 12%, 24 h, scale 0 to 5, 0.5 or greater significant.
The mark [12] stands for this setting: additive concentration 1%, 24 h, scale 0 to 5, 0.5 or greater significant.

Several values for one entry are separate records, joined by “and”; a condition that tells them apart may be missing. Equal entries are not always repeated. Structures can show the parent of a compound that is named as a salt. Ends that are not written are not given here.

As to `OC[C@H]1O[C@@](CO)(O[C@H]2O[C@H](CO)[C@@H](O)[C@H](O)[C@H]2O)[C@@H](O)[C@@H]1O` [Sucrose], the “Score (methylene blue)” value under setting [1] was found to be 1.7 ± 0.6. With `C[C@H]1C[C@H]2[C@@H]3CCC4=CC(=O)C=C[C@]4(C)[C@@]3(F)[C@@H](O)C[C@]2(C)[C@@]1(O)C(=O)COP(=O)([O-])[O-].[Na+].[Na+]` [Betamethasone phospate Na, reference compound], the “Effect on pathway closure (in words)” value under setting [2] is reported as “significant effect”. In addition, the “Score (methylene blue)” value under setting [3] worked out at 2.3 ± 0.4. As for `O=C(O)c1ccccc1O` [salicylic acid], the “Effect on pathway closure (in words)” value under setting [2] was “had an effect on pathway closure”. As to `O=C[C@H](O)[C@@H](O)[C@H](O)[C@H](O)CO` [D-Glucose], the “Effect on pathway closure (in words)” value under setting [2] is recorded as “most effective agents”. In addition, the “Score (methylene blue)” value by setting is: under setting [4], 1.5 ± 0.0; under setting [5], 1.8 ± 0.6; under setting [6], 3.5 ± 0.5; under setting [1], 4.0 ± 0.3. Consider `OCCCCO` [1-4 Butane diol], for which, for the setting “guinea pig, in vivo”, the “Score (methylene blue)” value amounted to 3.0 ± 0.3. As for PEG-350, the “Score (methylene blue)” value under setting [1] is reported as 0 ± 0. With PEG-12, the “Score (methylene blue)” value under setting [1] stood at 0 ± 0. Same read-out and setting: as for `Cl.N[C@H]1C(O)O[C@H](CO)[C@H](O)[C@@H]1O` (stereo partly drawn) [Galactosamine hydrochloride], the figure is 2.8 ± 0.3. Turning to `[Cl-].[Na+]` [NaCl], the “Score (methylene blue)” value (guinea pig, in vivo) is recorded as 1.8 ± 0.2. Regarding `CC(C)O` [Isopropyl alcohol], the “Score (methylene blue)” value under setting [7] was 0.2 ± 0.2. Regarding `CC(O)CO` (stereo not drawn) [Propylene glycol], the “Score (methylene blue)” value by setting is: under setting [7], 0.7 ± 0.2; under setting [1], 1.3 ± 0.1; (additive concentration 70%, 24 h, scale 0 to 5, 0.5 or greater significant) 1.0 ± 0.6. Consider `CC(=O)[O-].[Na+]` [Sodium acetate], for which, under “guinea pig, in vivo”, the “Score (methylene blue)” value amounted to 1.7 ± 0.1. Regarding Laminin, the “Score (methylene blue)” value under setting [8] is listed as 1.0 ± 0.3. Consider `O=C[C@H](O)[C@@H](O)[C@H](O)[C@H](O)C(=O)[O-].[Na+]` [Glucuronic acid sodium salt], for which, under setting [2], the “Effect on pathway closure (in words)” value is “most effective agents”. For the same molecule, the “Score (methylene blue)” value runs as follows: under setting [4], 1.0 ± 0.0; under setting [9], 3.5 ± 0.3; under setting [10], 3.0 ± 0.3. Turning to SIKVAV [reference compound], the “Score (methylene blue)” value under setting [8] stood at 0.5 ± 0.5.

As to `CC(C(=O)O)c1cccc(C(=O)c2ccccc2)c1` (stereo not drawn) [Ketoprofen Na, reference compound], the “Effect on pathway closure (in words)” value under setting [2] is listed as “significant effect”. The “Score (methylene blue)” value under setting [3] came out at 2.3 ± 0.6. Turning to `OCCOCCOCCO` [Triethylene glycol], the “Score (methylene blue)” value under setting [9] worked out at 1.3 ± 0.3, the “Score (methylene blue)” value under setting [7] is 3.3 ± 0.3 and the “Score (methylene blue)” value under setting [1] was 3.7 ± 0.3. For `NCC(=O)O` [Glycine], the “Score (methylene blue)” value (additive concentration 9%, 24 h, scale 0 to 5, 0.5 or greater significant) stood at 1.8 ± 0.3. Take `CC(O)CCO` (stereo not drawn) [1-3 Butane diol]: where the note is “guinea pig, in vivo”, the “Score (methylene blue)” value is on record as 0.2 ± 0.2. Consider `OC[C@@H](O)[C@@H](O)CO` [Erythritol], for which the “Score (methylene blue)” value under setting [7] came to 3.3 ± 0.4. As to `O=C(O)CO` [Glycolic acid, sodium salt], the “Score (methylene blue)” value runs as follows: (additive concentration 6%, 24 h, scale 0 to 5, 0.5 or greater significant) 1.7 ± 0.1; under setting [11], 2.6 ± 0.1; (additive concentration 24%, 24 h, scale 0 to 5, 0.5 or greater significant) 2.7 ± 0.1. Consider Arg-Gly-Asp [reference compound], for which the “Score (methylene blue)” value under setting [12] amounted to 0.7 ± 0.4.

`OC[C@@H](O)[C@@H](O)[C@H](O)[C@@H](O)CO` [Sorbitol]: under setting [2], the “Effect on pathway closure (in words)” value is recorded as “most effective agents”. Moreover, the “Score (methylene blue)” value is on record as 1.3 ± 0.6 under setting [5], 3.3 ± 0.3 under setting [6] and 3.3 ± 0.3 under setting [1]. `OCCOCCO` [Diethylene glycol]: for the setting “guinea pig, in vivo”, the “Effect on pathway closure (in words)” value is listed as “most effective agents” and the “Score (methylene blue)” value came out at 3.2 ± 0.2. `OC[C@H]1O[C@H](O[C@H]2O[C@H](CO)[C@@H](O)[C@H](O)[C@H]2O)[C@H](O)[C@@H](O)[C@@H]1O` [Trehalose]: the “Score (methylene blue)” value under setting [1] came out at 1.5 ± 0.0. On to `O=C(O)CC(O)C(=O)O` (stereo not drawn) [Malic acid, disodium salt], for which the “Score (methylene blue)” value under setting [5] is on record as 2.1 ± 0.3. With Insulin [reference compound], the “Score (methylene blue)” value (additive concentration 3 mM, 24 h, scale 0 to 5, 0.5 or greater significant) is reported as 0.2 ± 0.2. Consider `[Ca+2].[Cl-].[Cl-]` [Calcium chloride], for which the “Score (methylene blue)” value (guinea pig, in vivo) is on record as 0.7 ± 0.4.

Take `O[C@H]1[C@H](O)[C@@H](O)[C@H](O)[C@@H](O)[C@H]1O` [Inositol]: the “Score (methylene blue)” value under setting [9] worked out at 1.5 ± 0.3. The same measure, in the same setting: in the case of `C[S+](C)[O-]` [Dimethylsulfoxide] it was 1.0 ± 0.0. In the case of Heparin [reference compound], the “Score (methylene blue)” value under setting [3] was found to be 0.3 ± 0.2. As to `CCOCCOCCO` [Ethoxydiglycol], the “Score (methylene blue)” value under setting [1] is 0.5 ± 0.3. For `Cl.NC(CO)(CO)CO` [Tromethamine hydrochloride], the “Effect on pathway closure (in words)” value (guinea pig, in vivo) was “most effective agents”. For the same molecule, where the note is “guinea pig, in vivo, hydrochloride”, the “Score (methylene blue)” value was 3.7 ± 0.3 and 2.3 ± 0.3.

In the case of `O=C(O)C(O)C(O)C(=O)O` (stereo not drawn) [Tartaric acid, disodium salt], under setting [11], the “Score (methylene blue)” value is reported as 1.5 ± 0.4. For `O=C[C@H](O)[C@H](O)[C@H](O)CO` [Ribose], the “Score (methylene blue)” value under setting [1] is 2.3 ± 0.3. With “Tyr-Ile-Gly-Ser-Arg-NH2 (YIGSR-NH2) [reference compound]”, the “Score (methylene blue)” value under setting [8] was 0.3 ± 0.3. With `O=C(O)CC(O)(CC(=O)O)C(=O)O` [Citric acid disodium salt], the “Score (methylene blue)” value (additive concentration 0.5%, 24 h, scale 0 to 5, 0.5 or greater significant) was 0 ± 0; the “Score (methylene blue)” value under setting [12] is given as 0.3 ± 0.2; the “Score (methylene blue)” value (additive concentration 3%, 24 h, scale 0 to 5, 0.5 or greater significant) amounted to 1.2 ± 0.2. For the molecule `CCC(O)CO` (stereo not drawn) [1-2 Butane diol], the “Score (methylene blue)” value (guinea pig, in vivo) was determined as 2.0 ± 0.8. Still for that read-out and setting: as for `CC(=O)O.N` [Ammonium acetate], the figure is 2.1 ± 0.1. On the same count and under the same terms, in the case of `CCCCCCCCCCCCCCCC[n+]1ccccc1` [Cetyl pyridinium chloride] it was 0 ± 0.

With `O=C(O)CN(CCN(CC(=O)O)CC(=O)O)CC(=O)O` [EDTA], under “guinea pig, in vivo”, the “Effect on pathway closure (in words)” value was “most effective agents in preventing pathway closure” and the “Score (methylene blue)” value amounted to 1.3 ± 0.2.

For `OC[C@@H](O)[C@@H](O)[C@@H](O)CO` [Adonitol], the “Effect on pathway closure (in words)” value under setting [2] is “most effective agents”. Moreover, the “Score (methylene blue)” value by setting is: under setting [5], 3.0 ± 0.3; under setting [6], 3.5 ± 0.3; under setting [1], 3.7 ± 0.3.

In the case of `CCCCCCCCCCCCOS(=O)(=O)[O-].[Na+]` [Sodium dodecyl sulfate], the “Score (methylene blue)” value (additive concentration 0.01%, 24 h, scale 0 to 5, 0.5 or greater significant) was 0 ± 0.

As to `Cl.N` [Ammonium chloride], the “Score (methylene blue)” value (guinea pig, in vivo) came out at 2.6 ± 0.1. As to PEG-4, the “Score (methylene blue)” value under setting [1] is listed as 2 ± 0.6. Regarding `CC(O)C(C)O` (stereo not drawn) [2-3 Butane diol], the “Score (methylene blue)” value (guinea pig, in vivo) worked out at 2.2 ± 0.2. `CCO` [Ethanol]: the “Score (methylene blue)” value (additive concentration 0% (4.3 M), 24 h, scale 0 to 5, 0.5 or greater significant) was found to be 0 ± 0. Turning to `O=C[C@@H](O)[C@H](O)[C@@H](O)[C@@H](O)CO` [L-Glucose], the “Score (methylene blue)” value under setting [6] was 3.5 ± 0.3. Turning to `O=C([O-])[C@H](O)[C@@H](O)[C@H](O)[C@H](O)CO.[Na+]` [Gluconic acid sodium salt], the “Score (methylene blue)” value was found to be 2.7 ± 0.2 under setting [9], 3.3 ± 0.0 under setting [10] and 4.5 ± 0.0 under setting [7]. In the case of `C=C1[C@@H](C)[C@H]2[C@H](Cc3ccccc3)NC(=O)[C@]23[C@H](OC(C)=O)/C=C/[C@@](C)(O)C(=O)[C@@H](C)C/C=C/[C@H]3[C@@H]1O` [Cytochalasin D, reference compound], the “Score (methylene blue)” value (additive concentration 0.025%, 24 h, scale 0 to 5, 0.5 or greater significant) is recorded as 1.5 ± 0.0.
